Tests used:
Test in all cases: relative viability (nuclei count vs DMSO), 5 days (fraction); higher = more cells survive
17-AAG + Phenformin = compound: C=CCNC1=C2C[C@@H](C)C[C@H](OC)[C@H](O)[C@@H](C)/C=C(\C)[C@H](OC(N)=O)[C@@H](OC)/C=C\C=C(/C)C(=O)NC(=CC1=O)C2=O [17-AAG] + N=C(N)NC(=N)NCCc1ccccc1 [Phenformin] (partner 250 µM)
How it was run: (§1)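 For relative viability, nuclei counts in treated wells were divided by those in vehicle wells. Lung cancer cell lines had been pin-tool dosed in 1536-well plates the day after seeding and cultured for 5 days, then fixed and stained in one step (final 0.05% Triton X-100, 1% formaldehyde, 1 ug/ml Hoechst) and imaged at 4×. Doses were one drug alone or a fixed anchor-drug dose plus five library-drug doses (not always all listed) in √10 steps, and values are duplicate-plate medians.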

17-AAG + Navitoclax = compound: C=CCNC1=C2C[C@@H](C)C[C@H](OC)[C@H](O)[C@@H](C)/C=C(\C)[C@H](OC(N)=O)[C@@H](OC)/C=C\C=C(/C)C(=O)NC(=CC1=O)C2=O [17-AAG] + CC1(C)CCC(c2ccc(Cl)cc2)=C(CN2CCN(c3ccc(C(=O)NS(=O)(=O)c4ccc(N[C@H](CCN5CCOCC5)CSc5ccccc5)c(S(=O)(=O)C(F)(F)F)c4)cc3)CC2)C1 [Navitoclax] (partner 0.5 µM)
How it was run: as §1

17-AAG + Trametinib = compound: C=CCNC1=C2C[C@@H](C)C[C@H](OC)[C@H](O)[C@@H](C)/C=C(\C)[C@H](OC(N)=O)[C@@H](OC)/C=C\C=C(/C)C(=O)NC(=CC1=O)C2=O [17-AAG] + CC(=O)Nc1cccc(-n2c(=O)n(C3CC3)c(=O)c3c(Nc4ccc(I)cc4F)n(C)c(=O)c(C)c32)c1 [Trametinib] (partner 0.02 µM)
How it was run: as §1

17-AAG + Pemetrexed = compound: C=CCNC1=C2C[C@@H](C)C[C@H](OC)[C@H](O)[C@@H](C)/C=C(\C)[C@H](OC(N)=O)[C@@H](OC)/C=C\C=C(/C)C(=O)NC(=CC1=O)C2=O [17-AAG] + Nc1nc2[nH]cc(CCc3ccc(C(=O)N[C@@H](CCC(=O)O)C(=O)O)cc3)c2c(=O)[nH]1 [Pemetrexed] (partner 0.2 µM)
How it was run: as §1

Cell Line | relative viability (17-AAG + Phenformin; first compound 0.00128 µM) | relative viability (17-AAG + Phenformin; first compound 0.004048 µM) | relative viability (17-AAG + Phenformin; first compound 0.0128 µM) | relative viability (17-AAG + Phenformin; first compound 0.04048 µM) | relative viability (17-AAG + Phenformin; first compound 0.128 µM) | relative viability (17-AAG + Navitoclax; first compound 0.00128 µM) | relative viability (17-AAG + Navitoclax; first compound 0.004048 µM) | relative viability (17-AAG + Navitoclax; first compound 0.0128 µM) | relative viability (17-AAG + Navitoclax; first compound 0.04048 µM) | relative viability (17-AAG + Navitoclax; first compound 0.128 µM) | relative viability (17-AAG + Trametinib; first compound 0.00128 µM) | relative viability (17-AAG + Trametinib; first compound 0.004048 µM) | relative viability (17-AAG + Trametinib; first compound 0.0128 µM) | relative viability (17-AAG + Trametinib; first compound 0.04048 µM) | relative viability (17-AAG + Trametinib; first compound 0.128 µM) | relative viability (17-AAG + Pemetrexed; first compound 0.00128 µM) | relative viability (17-AAG + Pemetrexed; first compound 0.004048 µM) | relative viability (17-AAG + Pemetrexed; first compound 0.0128 µM) | relative viability (17-AAG + Pemetrexed; first compound 0.04048 µM) | relative viability (17-AAG + Pemetrexed; first compound 0.128 µM)
COR-L 105 | 0.55 | 0.453 | 0.463 | 0.354 | 0.299 | 0.936 | 0.756 | 0.721 | 0.604 | 0.486 | 0.473 | 0.406 | 0.501 | 0.375 | 0.335 | 1.17 | 1.32 | 1.02 | 0.968 | 0.687
HCC-15 | 0.433 | 0.33 | 0.146 | 0.124 | 0.107 | 0.767 | 0.57 | 0.434 | 0.469 | 0.144 | 0.415 | 0.416 | 0.286 | 0.214 | 0.13 | 0.23 | 0.236 | 0.216 | 0.144 | 0.138
NCI-H2170 | 0.408 | 0.453 | 0.297 | 0.163 | 0.135 | 0.649 | 0.578 | 0.548 | 0.251 | 0.167 | 0.958 | 0.843 | 0.91 | 0.402 | 0.134 | 0.256 | 0.27 | 0.262 | 0.152 | 0.139
RERF-LC-KJ | 0.535 | 0.489 | 0.321 | 0.268 | 0.27 | 1.09 | 0.747 | 0.712 | 0.254 | 0.234 | 0.837 | 0.864 | 0.737 | 0.404 | 0.244 | 0.47 | 0.514 | 0.33 | 0.255 | 0.219
NCI-H1993 | 0.507 | 0.451 | 0.472 | 0.397 | 0.404 | 0.904 | 0.933 | 0.529 | 0.564 | 0.441 | 0.61 | 0.464 | 0.49 | 0.313 | 0.387 | 0.65 | 0.649 | 0.437 | 0.298 | 0.323
NCI-H1915 | 0.358 | 0.372 | 0.308 | 0.106 | 0.0928 | 0.763 | 0.754 | 0.797 | 0.771 | 0.409 | 0.293 | 0.302 | 0.23 | 0.103 | 0.0681 | 0.521 | 0.462 | 0.422 | 0.191 | 0.057
SK-LU-1 | 0.484 | 0.214 | 0.119 | 0.116 | 0.0908 | 0.818 | 0.164 | 0.135 | 0.152 | 0.136 | 0.436 | 0.473 | 0.217 | 0.195 | 0.216 | 0.999 | 0.63 | 0.28 | 0.27 | 0.19
LOU-NH91 | 0.592 | 0.513 | 0.383 | 0.376 | 0.307 | 0.608 | 0.525 | 0.32 | 0.332 | 0.297 | 0.795 | 0.747 | 0.584 | 0.434 | 0.387 | 0.392 | 0.371 | 0.304 | 0.302 | 0.371
NCI-H2405 | 0.398 | 0.383 | 0.33 | 0.209 | 0.185 | 0.98 | 0.71 | 0.231 | 0.271 | 0.165 | 0.663 | 0.482 | 0.338 | 0.204 | 0.171 | 1.05 | 0.956 | 0.267 | 0.186 | 0.156
NCI-H2126 | 0.576 | 0.563 | 0.305 | 0.289 | 0.271 | 0.864 | 0.845 | 0.878 | 0.796 | 0.381 | 0.576 | 0.568 | 0.625 | 0.594 | 0.443 | 0.689 | 0.749 | 0.746 | 0.257 | 0.258
HCC-827 | 0.368 | 0.447 | 0.363 | – | 0.251 | 0.973 | 1.03 | 1.01 | – | 0.944 | 0.508 | 0.508 | 0.502 | – | 0.311 | 0.283 | 0.264 | 0.257 | – | 0.218
NCI-H322M | 0.77 | 0.808 | 0.311 | 0.28 | 0.303 | 1.15 | 1.18 | 1.26 | 0.573 | 0.564 | 0.512 | 0.547 | 0.452 | 0.536 | 0.403 | 0.659 | 0.652 | 0.42 | 0.348 | 0.366
HOP-62 | 0.711 | 0.541 | 0.404 | 0.305 | 0.118 | 1.16 | 1.01 | 1.05 | 0.843 | 0.151 | 0.396 | 0.35 | 0.355 | 0.191 | 0.167 | 0.409 | 0.314 | 0.271 | 0.127 | 0.109
HCC-44 | 0.22 | 0.285 | 0.158 | 0.0925 | 0.0873 | 1 | 0.929 | 0.897 | 0.481 | 0.207 | 1.04 | 1.01 | 0.988 | 1.05 | 0.804 | 0.639 | 0.619 | 0.649 | 0.694 | 0.352

— the supplement of paper PMC10307832
